In the PolyMetriX glass transition set:

| glass transition temperature [°C] | SMILES |
| --- | --- |
| 220.00 | */N=N/c1ccc(NC(=O)CCC(=O)Nc2ccc(*)cc2)cc1 (repeat unit) |
| 145.00 | *C(=O)CCC1(CCC(=O)N2CCN(*)CC2)c2ccccc2-c2ccccc21 (repeat unit) |
| 240.00 | *C(=O)c1ccc2c(c1)C(=O)N(C1CCC(CC3CCC(N4C(=O)c5ccc(*)cc5C4=O)C(C)C3)CC1C)C2=O (repeat unit) |
| 214.50 | *C(=O)c1cccc(C(=O)N2CCN(*)CC2)c1 (repeat unit) |
| 193.00 | *C(=O)c1ccccc1-c1ccccc1C(=O)N1CCN(*)CC1 (repeat unit) |
| -1.00 | *C/C=C/C[Si](*)(C)CCCOc1ccc2ccccc2c1 (repeat unit) |
| 66.00 | *CC(*)c1ccc(C(=O)CCCCC)cc1 (repeat unit) |
| 41.00 | *CC(*)c1ccc(C(=O)CCN2CCOCC2)cc1 (repeat unit) |
| 102.00 | *CC(*)c1ccc(C(=O)N(CC)CC)cc1 (repeat unit) |
| 127.00 | *CC(*)c1ccc(C(=O)N2CCOCC2)cc1 (repeat unit) |
| 91.00 | *CC(*)c1ccc(C(=O)OCCN(C)C)cc1 (repeat unit) |
| 100.00 | *CC(*)c1ccc(C(C)(O)CCCCC)cc1 (repeat unit) |
| 42.00 | *CC(*)c1ccc(C(F)(F)C(F)(F)C(F)(F)C(F)(F)C(F)(F)C(F)(F)C(F)(F)F)cc1 (repeat unit) |
| 50.00 | *CC(*)c1ccc(C(O)CCN2CCOCC2)cc1 (repeat unit) |
| 23.00 | *CC(*)c1ccc(CCC(F)(F)C(F)(F)C(F)(F)C(F)(F)F)cc1 (repeat unit) |
| -36.00 | *CC(*)c1ccc(CCCCCCCCCCCCCC)cc1 (repeat unit) |
| 4.50 | *CC(*)c1ccc(CCCCCCCCCCCCCCCC)cc1 (repeat unit) |
| 55.00 | *CC(*)c1ccc(COCCC(F)(F)C(F)(F)C(F)(F)C(F)(F)C(F)(F)C(F)(F)C(F)(F)C(F)(F)F)cc1 (repeat unit) |
| 20.00 | *CC(*)c1ccc(COCCCCO)cc1 (repeat unit) |

| glass transition temperature [°C] | SMILES |
| --- | --- |
| 166.00 | *CC(*)c1ccc(Cn2c3ccccc3c3ccccc32)cc1 (repeat unit) |
| 123.50 | *CC(*)c1ccc(N(c2ccccc2)c2ccccc2)cc1 (repeat unit) |
| 35.50 | *CC(*)c1ccc([Si](C)(C)O[Si](C)(C)C)cc1 (repeat unit) |
| 114.00 | *CC(*)c1ccc([Si](O[Si](C)(C)C)(O[Si](C)(C)C)O[Si](C)(C)C)cc1 (repeat unit) |
| 92.00 | *CC(*)c1ccccc1C(=O)OCCCCC (repeat unit) |
| 13.00 | *CC(*)c1ccccc1COCCCCCCCC (repeat unit) |
| 291.50 | *CC(*)n1c2ccccc2c2c3ccccc3ccc21 (repeat unit) |
| 221.00 | *CC(OC)C1C(=O)N(c2ccc(N(C)C)cc2)C(=O)C1* (repeat unit) |
| 205.00 | *CC(c1ccccc1)C1C(=O)N(C)C(=O)C1* (repeat unit) |
| 70.00 | *CC(c1ccccc1)C1C(=O)N(CCCCCCCCCCCC)C(=O)C1* (repeat unit) |
| 172.00 | *CC(c1ccccc1)C1C(=O)N(CCN(CC)c2ccc(/N=N/c3ccc([N+](=O)[O-])cc3)cc2)C(=O)C1* (repeat unit) |
| 208.00 | *CC(c1ccccc1)C1C(=O)N(c2ccc(NC(=O)OCC3CCCN3c3ccc([N+](=O)[O-])cc3)cc2)C(=O)C1* (repeat unit) |
| 30.50 | *CC1CC(*)C(OC(=O)CCCCCCCCCCOc2ccc(-c3ccc(C#N)cc3)cc2)C1 (repeat unit) |
| 263.00 | *CC1CCCC(Cn2c(=O)c3cc4c(=O)n(*)c(=O)c4cc3c2=O)C1 (repeat unit) |
| 165.00 | *CCCC1(CCCNC(=O)CCC2(CCC(=O)N*)c3ccccc3-c3ccccc32)c2ccccc2-c2ccccc21 (repeat unit) |
| 30.00 | *CCN(CCOC(=O)CCC#CC#CCCC(=O)O*)c1ccc([N+](=O)[O-])cc1 (repeat unit) |
| 192.00 | *Cc1cccc(CNC(=O)c2cc(C(=O)N*)cc(C(C)(C)C)c2)c1 (repeat unit) |
| -51.62 | *O[Si](C)(C)CCC/N=C/c1cc(Cc2ccc(O)c(/C=N/CCC[Si](*)(C)C)c2)ccc1O (repeat unit) |
| 225.00 | *c1ccc2c(c1)C(=O)N(C1CCC(CC3CCC(N4C(=O)c5ccc(C(*)(C(F)(F)F)C(F)(F)F)cc5C4=O)C(C)C3)CC1C)C2=O (repeat unit) |

The remaining lines, values behind:

| SMILES | glass transition temperature [°C] |
| --- | --- |
| */C=C/CC(C*)c1ccccc1 (repeat unit) | 14.00 |
| *C(=O)NCC(C)(C)CNC(=O)c1ncn(C)c1* (repeat unit) | 152.00 |
| *C(=O)NCCCCCCNC(=O)c1ncn(C)c1* (repeat unit) | 86.00 |
| *C/C=C/CS(*)(=O)=O (repeat unit) | 86.00 |
| *C1CCC(CC2CCC(N3C(=O)C4C5C=CC(C6C(=O)N(*)C(=O)C56)C4C3=O)C(C)C2)CC1C (repeat unit) | 241.00 |
| *CC(*)c1ccc(C(C)(O)CC)cc1 (repeat unit) | 190.00 |
| *CC(*)c1ccc([CH]([Sn]([CH3])([CH3])[CH3])[Sn]([CH3])([CH3])[CH3])cc1 (repeat unit) | 140.00 |
| *CC(*)c1ccc(COC(C)CC)cc1 (repeat unit) | 40.00 |
| *CC(*)c1ccc(Cl)c(Cl)c1 (repeat unit) | 128.00 |
| *CC(*)c1ccc(OC(C)=O)c(OC)c1 (repeat unit) | 115.00 |
| *CC(*)c1ccc(OCCC(C)C)cc1 (repeat unit) | 57.00 |
| *CC(*)c1ccc(OP2(OCCOCCOCCOC)=NP(OCCOCCOCCOC)(OCCOCCOCCOC)=NP(OCCOCCOCCOC)(OCCOCCOCCOC)=N2)cc1 (repeat unit) | -46.00 |
| *CC(*)c1ccc([Si](C)(C)O)cc1 (repeat unit) | 147.00 |
| *CC(*)c1cccc(NC(C)=O)c1 (repeat unit) | 163.00 |
| *CC(*)c1ccccc1Br (repeat unit) | 149.00 |
| *CC(*)c1ccccc1C (repeat unit) | 131.00 |
| *CC(*)c1ccccc1C(=O)NC (repeat unit) | 189.00 |
| *CC(*)c1ccccc1C(F)(F)F (repeat unit) | 165.00 |
| *CC(*)c1ccccc1COC (repeat unit) | 89.00 |
| *CC(*)c1ccccc1COCCC (repeat unit) | 97.00 |
| *CC(*)c1ccccc1F (repeat unit) | 160.50 |
| *CC(*)c1ccccc1O (repeat unit) | 172.00 |
| *CC(*)c1nnn[nH]1 (repeat unit) | 72.00 |
| *CC(*)n1ccc2ccccc21 (repeat unit) | 19.00 |

| SMILES | glass transition temperature [°C] |
| --- | --- |
| *CC(=O)NCCCCCCNC(=O)CC1COC(*)CO1 (repeat unit) | 73.00 |
| *CC(C)(C)C1CC=C(*)CC1 (repeat unit) | 77.00 |
| *CC(CCCCCCCCCCCCCCCC)C1C(=O)N(CCCCNC(=O)C(F)(F)C(F)(F)C(F)(F)C(F)(F)C(F)(F)C(F)(F)C(F)(F)F)C(=O)C1* (repeat unit) | 63.00 |
| *CC(OCCCC)C1(C)C(=O)OC(=O)C1(*)C (repeat unit) | 197.00 |
| *CC(OCCCC)C1C(=O)OC(=O)C1* (repeat unit) | 118.00 |
| *CC1(C)CC(*)(C)C(=O)OC1=O (repeat unit) | 144.00 |
| *CC1CC(*)C(=O)OC1=O (repeat unit) | 140.00 |
| *CCC(C(=O)OC)C(*)C(=O)OC (repeat unit) | 31.20 |
| *CCC(C)C(*)C (repeat unit) | -26.00 |
| *CCC1C(=O)N(C)C(=O)C1* (repeat unit) | 141.20 |
| *CCC1C(=O)N(CC)C(=O)C1* (repeat unit) | 109.20 |
| *CCC1C(=O)N(CCCCCCCCCCCCCC)C(=O)C1* (repeat unit) | 62.40 |
| *CCC1CC(*)C2C3CC(C12)C(C)(C(=O)OC)C3 (repeat unit) | 146.00 |
| *CCC1CC(*)C2C3CCC(C3)C12 (repeat unit) | 164.00 |
| *CCC1CC2C(CC(*)C2OC(=O)CCCCCCCCCCOc2ccc(-c3ccc(C#N)cc3)cc2)C1OC(=O)CCCCCCCCCCOc1ccc(-c2ccc(C#N)cc2)cc1 (repeat unit) | 23.50 |
| *CCCCCCCCCNC(=O)C(OC)C(OC)C(=O)N* (repeat unit) | 84.00 |
| *CCCCCCNC(=O)CCP(C)(=O)CCC(=O)N* (repeat unit) | 57.50 |
| *CCCCOC(=O)CCC(=O)O* (repeat unit) | -32.00 |
| *OC(=O)CCC(=O)OC1COC2C(*)COC12 (repeat unit) | 77.00 |
| *OC(C)CCC(C)OC(=O)CCCCCCCCC(*)=O (repeat unit) | -66.00 |
| *O[Si](C)(C)O[Si](C)(C)O[Si](C)(C)OC(C)CCC(*)C (repeat unit) | -90.00 |
| *O[Si](C)(C)O[Si](C)(C)O[Si](C)(C)O[Si](C)(C)OC(C)CCC(*)C (repeat unit) | -96.00 |
| *O[Si](C)(C)O[Si](C)(C)O[Si](C)(C)O[Si](C)(C)O[Si](C)(C)OC(C)CCC(*)C (repeat unit) | -106.00 |
| *O[Si](C)(CCC(F)(F)F)CCC(F)(F)C(F)(F)C(F)(F)C(F)(F)C(F)(F)C(F)(F)CC[Si](*)(C)CCC(F)(F)F (repeat unit) | -24.00 |
